Source: patent US20200407370A1, “PEPTIDYLARGININE DEIMINASE INHIBITOR AND USE THEREOF” (Nanjing Transthera Biosciences Co., Ltd., priority 2018, published 2020)
One block for each compound: values may come before it.

Key:
Assay type in all cases: in vitro ADME
[1] = Liver microsomal stability in human; details: human liver microsomes, 0.5 mg protein/mL, 1 μM compound, 37° C.
Protocol: (§1) Experimental Example 2: Evaluation on Liver Microsomal Stability of the Compound Disclosed Herein in Human/Canine
(§2) An appropriate amount of the compound was precisely weighed and dissolved in DMSO to prepare a 5.0 mM stock solution. 5.0 mM stock solution was diluted to 1.0 mM with DMSO, and then diluted with water to 10 μM, serving as a compound working solution for later use (DMSO content in the reaction system: 0.1% v/v).
(§3) • (1) The liver microsomes (20 mg protein/mL) were taken from a −80° C. refrigerator, pre-incubated on a 37° C. water bath thermostatic oscillator for 3 min, and thawed for use. • (2) A mixed incubation system solution (without compounds or β-NADPH) was prepared according to the proportion of “composition of the incubation system” described above and pre-incubated on a 37° C. water bath thermostatic oscillator for 2 min. • (3) Control group (without β-NADPH): 30 μL of water and 30 μL of compound working solution (10 μM) were added to 240 μL of the mixed incubation system solution in step (2), and the mixture was vortexed for 30 s and mixed. The total volume of the mixture was 300 μL. The sample was duplicated. The reaction solution was placed on a 37° C. water bath thermostatic oscillator for incubation, and timing was started. Samples were collected at 0 min and 60 min. • (4) Sample group: 70 μL of β-NADPH solution (10 mM) and 70 μL of compound working solution (10 μM) were added to 560 μL of the mixed incubation system solution in step (2), and the total volume of the mixture was 700 μL. The mixture was vortexed for 30 s and mixed. The sample was duplicated. The reaction solution was placed on a 37° C. water bath thermostatic oscillator for incubation, and timing was started. Samples were collected at 0 min, 5 min, 10 min, 20 min, 30 min and 60 min after timing. • (5) The reaction solution was vortexed for 3 min, and centrifuged at 12,000 rpm for 5 min. • (6) 50 μL of the supernatant was added to 150 μL of water, and the resulting solution was vortexed and mixed before LC/MS/MS analysis.
(§4) The half-life (t1/2) and clearance (Cl) were calculated using the following first-order kinetic formula:
(§5) Vd=1/protein content in liver microsomes
(§6) Note: k denotes the slope of the logarithm of the remaining amount of a compound vs. time, Vd denotes apparent volume of distribution, C0 denotes drug concentration at 0 h, Ct denotes drug concentration at time t, t denotes time, e denotes natural number, and Clint denotes intrinsic clearance.

[2] = Liver microsomal stability in rat; details: rat liver microsomes, 0.5 mg protein/mL, 1 μM compound, 37° C.
Protocol: (§7) Experimental Example 4:Evaluation on Liver Microsomal Stability of the Compound Disclosed Herein in Mouse/Rat
(§8) Objective: To evaluate the liver microsomal stability of the compound disclosed herein in mouse/rat
as §2
as §2, with “methanol” for “DMSO”, “methanol,” for “DMSO,”, “10% methanol-water (v/v) solution” for “water”, “(methanol” for “(DMSO”, “1.1%” for “0.1%”
(§9) • (1) The liver microsomes (20 mg protein/mL) were taken from a −80° C. refrigerator, pre-incubated on a 37° C. water bath thermostatic oscillator for 3 min, and thawed for use. • (2) A mixed incubation system solution (without compounds or […]) was prepared according to the proportion of “composition of the incubation system” described above and pre-incubated on a 37° C. water bath thermostatic oscillator for 2 min. • (3) Control group (without β-NADPH): 30 μL of water and 30 μL of compound working solution (10 μM) were added to 240 μL of the mixed incubation system solution in step (2), and the mixture was vortexed for 30 s and mixed. The total volume of the mixture was 300 μL. The sample was duplicated. The reaction solution was placed on a 37° C. water bath thermostatic oscillator for incubation, and timing was started. Samples were collected at 0 min and 60 min. • (4) Sample group: 70 μL of β-NADPH solution (10 mM) and 70 μL of compound working solution (10 μM) were added to 560 μL of the mixed incubation system solution in step (2), and the total volume of the mixture was 700 μL. The mixture was vortexed for 30 s and mixed. The sample was duplicated. The reaction solution was placed on a 37° C. water bath thermostatic oscillator for incubation, and timing was started. Samples were collected at 0 min, 5 min, 10 min, 20 min, 30 min and 60 min after timing. • (5) The reaction solution was vortexed for 3 min, and centrifuged at 12,000 rpm for 5 min. • (6) 50 μL of the supernatant was added to 150 μL of water, and the resulting solution was vortexed and mixed before LC/MS/MS analysis.
as §4, §5, §6

[3] = Liver microsomal stability in canine; details: dog; canine liver microsomes, 0.5 mg protein/mL, 1 μM compound, 37° C.
Protocol: as §1, §2, §3, §4, §5, §6

[4] = Liver microsomal stability in mouse; details: mouse liver microsomes, 0.5 mg protein/mL, 1 μM compound, 37° C.
Protocol: as §7, §8, §2
as §2, with “methanol” for “DMSO”, “methanol,” for “DMSO,”, “10% methanol-water (v/v) solution” for “water”, “(methanol” for “(DMSO”, “1.1%” for “0.1%”
as §9, §4, §5, §6

half-life at 1 μM [4]: 11.6 h
microsomal CLint at 1 μM [4]: 2 µL/min/mg
half-life at 1 μM [2]: 5.25 h
microsomal CLint at 1 μM [2]: 4.4 µL/min/mg
SMILES: COc1cc(C(=O)N2CCC[C@@H](N)C2)cc2nc(-c3cc4ccsc4n3CC(C)C)n(C)c12 [Compound 20, (R)-(3-aminopiperidin-1-yl)(2-(6-isobutyl-6H-thieno[2,3-b]pyrrol-5-yl)-7-methoxy-1-methyl-1H-benzo[d]imidazol-5-yl)methanone]

half-life at 1 μM [2]: 2.97 h
microsomal CLint at 1 μM [2]: 7.8 µL/min/mg
SMILES: COc1cc(C(=O)N2CCC[C@@H](N)C2)cc2nc(-c3cc4ccsc4n3CC(F)(F)F)n(C)c12 [Compound 21, (R)-(3-aminopiperidin-1-yl)(7-methoxy-1-methyl-2-(6-(2,2,2-trifluoroethyl)-6H-thieno[2,3-b]pyrrol-5-yl)-1H-benzo[d]imidazol-5-yl)methanone]

The next lines start with the compound.

SMILES: CCn1c(-c2nc3cc(C(=O)N4CCC[C@@H](N)C4)cc(OC)c3n2C)cc2ccsc21 [Compound 3, (R)-(3-aminopiperidin-1-yl)(2-(6-ethyl-6H-thieno[2,3-b]pyrrol-5-yl)-7-methoxy-1-methyl-1H-benzo[d]imidazol-5-yl)methanone]
half-life at 1 μM [1]: 4.62 h
microsomal CLint at 1 μM [1]: 5 µL/min/mg
half-life at 1 μM [2]: 3.98 h
microsomal CLint at 1 μM [2]: 5.8 µL/min/mg

SMILES: CCn1c(-c2nc3cc(C(=O)N4CCC[C@@H](N)C4)cc(OC)c3n2C)cc2cc(C)sc21 [Compound 9, (R)-(3-aminopiperidin-1-yl)(2-(6-ethyl-2-methyl-6H-thieno[2,3-b]pyrrol-5-yl)-7-methoxy-1-methyl-1H-benzo[d]imidazol-5-yl)methanone]
half-life at 1 μM [3]: 23.1 h
microsomal CLint at 1 μM [3]: 1 µL/min/mg
t1/2 [2]: →∞

SMILES: COc1cc(C(=O)N2CCC[C@@H](N)C2)cc2nc(-c3cc4ccsc4n3CC3CC3)n(C)c12 [Compound 18, (R)-(3-aminopiperidin-1-yl)(2-(6-(cyclopropylmethyl)-6H-thieno[2,3-b]pyrrol-5-yl)-7-methoxy-1-methyl-1H-benzo[d]imidazol-5-yl)methanone]
half-life at 1 μM [1]: 3.5 h
microsomal CLint at 1 μM [1]: 6.6 µL/min/mg
half-life at 1 μM [4]: 4.13 h
microsomal CLint at 1 μM [4]: 5.6 µL/min/mg

SMILES: COc1cc(C(=O)N2CCC[C@@H](N)C2)cc2nc(-c3cc4ccsc4n3CC3CCC3)n(C)c12 [Compound 22, (R)-(3-aminopiperidin-1-yl)(2-(6-(cyclobutylmethyl)-6H-thieno[2,3-b]pyrrol-5-yl)-7-methoxy-1-methyl-1H-benzo[d]imidazol-5-yl)methanone]
half-life at 1 μM [4]: 2.68 h
microsomal CLint at 1 μM [4]: 8.6 µL/min/mg

SMILES: COc1cc(C(=O)N2CCC[C@@H](N)C2)cc2nc(-c3cc4cc(C)sc4n3CC3CC3)n(C)c12 [Compound 23, (R)-(3-aminopiperidin-1-yl)(2-(6-(cyclopropylmethyl)-2-methyl-6H-thieno[2,3-b]pyrrol-5-yl)-7-methoxy-1-methyl-1H-benzo[d]imidazol-5-yl)methanone]
half-life at 1 μM [4]: 3.98 h
microsomal CLint at 1 μM [4]: 5.8 µL/min/mg
